Source: PubChem BioAssay (NCI)
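Compound exposure: 48 hours, 5 concentrations, 96-well plates. TGI is the concentration that stops growth completely.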

Key:
Assay in all cases: NCI-60 cell line screen, 48 h
MOLT-4 leukemia = system: MOLT-4 leukemia
OVCAR-5 ovarian = system: OVCAR-5 ovarian
NCI-H226 lung = system: NCI-H226 lung
COLO 205 colon = system: COLO 205 colon
BT-549 breast = system: BT-549 breast
SF-295 CNS = system: SF-295 CNS
CAKI-1 renal = system: CAKI-1 renal
ACHN renal = system: ACHN renal
HT29 colon = system: HT29 colon
HCT-116 colon = system: HCT-116 colon
IGROV1 ovarian = system: IGROV1 ovarian
SK-MEL-2 melanoma = system: SK-MEL-2 melanoma
UACC-257 melanoma = system: UACC-257 melanoma
SW-620 colon = system: SW-620 colon
K-562 leukemia = system: K-562 leukemia
786-0 renal = system: 786-0 renal
HCT-15 colon = system: HCT-15 colon
U251 CNS = system: U251 CNS
PC-3 prostate = system: PC-3 prostate
NCI-H460 lung = system: NCI-H460 lung
OVCAR-4 ovarian = system: OVCAR-4 ovarian
HOP-92 NSCLC = system: HOP-92 NSCLC
NCI-H522 lung = system: NCI-H522 lung
NCI-H23 lung = system: NCI-H23 lung
SK-OV-3 ovarian = system: SK-OV-3 ovarian
A498 renal = system: A498 renal
UO-31 renal = system: UO-31 renal
HS 578T breast = system: HS 578T breast
TK-10 renal = system: TK-10 renal
EKVX NSCLC = system: EKVX NSCLC
HOP-62 NSCLC = system: HOP-62 NSCLC
MCF7 breast = system: MCF7 breast
A549 NSCLC = system: A549 NSCLC
MDA-N = system: MDA-N
SN12C renal = system: SN12C renal
DU-145 prostate = system: DU-145 prostate
SF-539 CNS = system: SF-539 CNS
HL-60(TB) leukemia = system: HL-60(TB) leukemia
HCC-2998 colon = system: HCC-2998 colon
RPMI-8226 leukemia = system: RPMI-8226 leukemia
UACC-62 melanoma = system: UACC-62 melanoma
MDA-MB-435 = system: MDA-MB-435
LOX IMVI melanoma = system: LOX IMVI melanoma
MALME-3M melanoma = system: MALME-3M melanoma
OVCAR-8 ovarian = system: OVCAR-8 ovarian
T-47D breast = system: T-47D breast
M14 melanoma = system: M14 melanoma
SF-268 CNS = system: SF-268 CNS
SNB-19 CNS = system: SNB-19 CNS
OVCAR-3 ovarian = system: OVCAR-3 ovarian
MDA-MB-231 breast = system: MDA-MB-231 breast
CCRF-CEM leukemia = system: CCRF-CEM leukemia
NCI/ADR-RES ovarian = system: NCI/ADR-RES ovarian
RXF 393 renal = system: RXF 393 renal
SK-MEL-28 melanoma = system: SK-MEL-28 melanoma
SK-MEL-5 melanoma = system: SK-MEL-5 melanoma
SNB-75 CNS = system: SNB-75 CNS
KM12 colon = system: KM12 colon

Measured: TGI

NC(Cc1ccccc1)C(=O)O (stereo not drawn)
> 100 µM: all assays above
